Marks after values point to notes of the source that are not given here.
Key:
Wild-type CHO cells = experiment: Live-cell uptake of fluorescent guanidinoneomycin conjugate (streptavidin-Alexa-488), microscopy; type: cell-based, Chinese hamster; conditions: 0.4 M sucrose; 5 mM amiloride
Protocol: Microscopy—Cells were cultured on Lab-Tek chambered coverglass slides (Electron Microscopy Sciences) in F12 medium. After washing with PBS, cells were incubated for 1 h in 1 ml of 60 nM guanidinoneomycin coupled to streptavidin-Alexa-488 (Molecular Probes) at 37° C. Guanidinoneomycin-A488 was prepared by incubating 1 μM guanidinoneomycinbiotin with 6 μg of streptavidin-Alexa-488 in 1 ml of medium. Hoechst 33342 (2 μg/ml; Molecular Probes) was added to cells for the last 20 min of incubation. Cells were washed three times with F12 medium before live cell imaging. Microscopic images were acquired on an Olympus IX70 DeltaVision Spectris Image Deconvolution system, equipped with a temperature and atmospherically controlled stage. Images were deconvolved (10 cycles) using SoftWoRx Explorer Suite software.

10T1/2 cells = experiment: FACS cellular uptake of BODIPY conjugates in 10T1/2 cells; type: cell-based, mouse; conditions: for Mean Fluorescence Intensity of treated cells according to FACS, 10T1/2: 0.5 μM of each compound for 1 hr, average of 10,000 cells; for cellular uptake compared to poly-Arg peptide BODIPY-Cys(Arg)9 / cellular uptake: FACS; for cellular uptake compared to poly-Arg peptide BODIPY-Cys(Arg)9: Table 1; for cellular uptake: slightly above autofluorescence of the cell
Protocol: (§1) 10T1/2 cells, an adherent non-transformed mouse fibroblast cell line, and HeLa cells, a common human cancer cell line, were purchased from ATCC and used before their 20th passage. Both cell lines were cultured in Dulbecco's modified eagle medium containing 10% fetal bovine serum at 37° C. in an 8% CO2 environment. For each experiment, cells were seeded onto 4 cm tissue culture plates (Nunc) and allowed to grow overnight to ˜80% confluency.
(§2) Compounds 1-5 identified in Table 1, below (0.5-1 μM), were added to each dish and incubated at 37° C./8% CO2 for 0.5-1 hr. Cells were then washed once in PBS, trypsinized with 500 μl ATV solution (Gibco) for 3 minutes, pelleted in a fixed angle centrifuge for 5 minutes at 5,000×G, then brought up in 1 mL PBS. Each sample was quickly (within 5 minutes) analyzed on a FACS VantageSE cell sorter (Becton-Dickinson) using the 488 nm argon/krypton laser line and a 530 nm band pass emission filter. 2,000-10,000 cells were counted per sample.

HeLa cells = experiment: FACS cellular uptake of BODIPY conjugates in HeLa cells; type: cell-based, human; conditions: 1 μM of each compound for 0.5 hr; average of 2,000 cells; about 10-fold higher instrumental gain than 10T1/2
Protocol: as §1, §2

WT CHO-K1 cells = experiment: Competition of guanidinoneomycin construct uptake by model glycans; type: cell-based, Chinese hamster
MPS I fibroblasts = experiment: [35S]glycosaminoglycan turnover, label-chase, MPS I fibroblasts; type: cell-based, human; conditions: enzyme 2 hours, chase 24 hours
Protocol: (§3) To test whether internalized GUS was functionally localized in lysosomes, a label-chase format was used in which cells were incubated with ^35S-labeled sulfate for 24 hours to radiolabel the sulfated glycosaminoglycans. The medium was changed, and after 24 hours, the amount of [^35S]glycosaminoglycans that remained associated with the cells was quantitated. Normal and MPS fibroblasts were incubated in DMEM/F12 medium supplemented with 10% dialyzed fetal bovine serum in order to increase the radiospecific activity of added ^35S4. Cells were seeded in a 12-well plate, and at confluence, 50 μCi of Na[^35S]O4 (PerkinElmer) was added in 1 ml of fresh medium. After 24 hours, the cells were rinsed twice with PBS, exposed to GUS or α-iduronidase for 2 hours, rinsed twice, and then chased for 24 hours in complete growth medium. The cells were harvested with trypsin, centrifuged (500 g, 5 minutes), and washed once. The sedimented cells were then resuspended in 100 μl of RIPA buffer (Sigma) and counted by liquid scintillation spectrometry using Scintillator Ultima Gold XR (PerkinElmer).

MPS VII fibroblasts [1] = experiment: Uptake of GUS enzymes by MPS VII fibroblasts (β-glucuronidase activity); type: cell-based, human
Protocol: GUS activity was measured by assaying the conversion of 4-methylumbelliferyl β-d-glucuronide (MUG; Sigma) into the fluorochrome 4-methylumbelliferone. The assay was performed in 96-well plates, using 100 μl of reaction buffer containing 50 mmol/L sodium acetate (pH 5.2), 10 mmol/L EDTA, 0.01% bovine serum albumin, 0.1% Triton X-100, […] of MUG, and enzyme. After 1 hour at 37° C., fluorescent product was measured by fluorimetry (excitation at 360 nm, emission at 460 nm) and quantified using a standard curve of 4-methylumbelliferone. One unit (U) of activity is defined as the liberation of […] of 4-methylumbelliferone per hour at pH 5.2, 37° C. α-1-iduronidase activity was measured in a similar way using 4-methylumbelliferyl α-1-iduronide (Glycosynth, Warrington, UK) as substrate. The assay was performed in 10 μl of 50 mmol/L sodium formate (pH 3) buffer containing 10 mmol/L NaCl, 0.1 mg/ml bovine serum albumin, 50 μmol/l substrate, and 2 μl of enzyme.
To test whether GNeo-bGus was taken up by GUS-deficient cells, enzyme activity was measured in MPR VII fibroblasts after 2-hour incubation with various concentrations of unmodified bGus and G-Neo-bGus (see FIG. 15a). Normal HFF, MPS VII, and MPS I fibroblasts were cultured in Earl's Minimal Essential Medium supplemented with 15% of fetal bovine serum and penicillin/streptomycin (Invitrogen). Approximately 8×10^4 cells in 0.4 ml of medium were seeded in each well of a 24-well plate. After 3 days, cells were incubated in fresh medium with and without 5 mmol/L of M6P or glucose 6-phosphate (G6P) (Sigma). The cells were incubated for 2 hours at 37° C., washed twice with PBS, treated with trypsin/EDTA, and then combined with complete medium to inhibit the trypsin. […] In some experiments, cells were treated 3 hours with recombinant heparin lyases I, II, and III (5 mU/ml) in serum-free medium, and uptake was measured as described above in medium containing heparinases. Enzyme activity in the cell extracts was measured in triplicate using 5 μg of total cell protein. […]

MPS VII fibroblasts [2] = experiment: [35S]glycosaminoglycan turnover, label-chase, MPS VII fibroblasts; type: cell-based, human; conditions: enzyme 2 hours, chase 24 hours
Protocol: as §3

## N=C(N)NC(=O)c1nc(Cl)c(N)nc1N [amiloride]
Wild-type CHO cells
  effect on internalization of fluorescent guanidinoneomycin conjugate: no effect

## OC[C@H]1O[C@@](CO)(O[C@H]2O[C@H](CO)[C@@H](O)[C@H](O)[C@H]2O)[C@@H](O)[C@@H]1O [sucrose]
Wild-type CHO cells
  effect on internalization of fluorescent guanidinoneomycin conjugate: marked decrease in internalization

## NC[C@H]1O[C@H](O[C@H]2[C@H](O)[C@@H](O[C@H]3O[C@H](CO)[C@@H](O)[C@H](N)[C@H]3O)[C@H](N)C[C@@H]2N)[C@H](N)C[C@@H]1O [tobramycin, reference compound]
10T1/2 cells; relative to autofluorescence, BODIPY conjugates, FIG. 3 and Table 1
  enhancement of cellular uptake upon guanidinylation: approximately 10 fold

## BODIPY-Cys(Arg)9 (CRRRRRRRRR; N-acetyl, C-amide, BODIPY label on Cys) [BODIPY-Cys (Arg)9 (5), common poly-Arg transduction peptide, reference compound]
10T1/2 cells; 0.5 μM BODIPY-Cys(Arg)9 + 10 μM guanidine-neomycin B (6), 1 hr
  Mean Fluorescence Intensity, 10T1/2, in presence of 10 μM (6): 110
10T1/2 cells; 0.5 μM BODIPY-Cys(Arg)9 + 50 μM guanidine-neomycin B (6), 1 hr
  Mean Fluorescence Intensity, 10T1/2, in presence of 50 μM (6): 90
10T1/2 cells; 0.5 μM BODIPY-Cys(Arg)9 + 200 μM guanidine-neomycin B (6), 1 hr
  Mean Fluorescence Intensity, 10T1/2, in presence of 200 μM (6): 70
10T1/2 cells
  Mean Fluorescence Intensity of treated cells according to FACS, 10T1/2: 280
HeLa cells
  Mean Fluorescence Intensity of treated cells according to FACS, HeLa: 2,000

## dermatan sulfate [Dermatan sulfate, DS (G)]
WT CHO-K1 cells; listed as Dermatan sulfate
  inhibition of cellular uptake of either construct (words): failed to inhibit
WT CHO-K1 cells; listed as dermatan sulfate
  inhibition of cellular uptake of either construct (words): no significant inhibition

## guanidino-Neo-BODIPY [Guanidino-Neo-BODIPY (4)]
10T1/2 cells
  Mean Fluorescence Intensity of treated cells according to FACS, 10T1/2: 430
  cellular uptake compared to poly-Arg peptide BODIPY-Cys(Arg)9: better cellular uptake
HeLa cells
  Mean Fluorescence Intensity of treated cells according to FACS, HeLa: 7,900

## guanidino-tobra-BODIPY [Guanidino-Tobra-BODIPY (2)]
10T1/2 cells
  Mean Fluorescence Intensity of treated cells according to FACS, 10T1/2: 240
  cellular uptake compared to poly-Arg peptide BODIPY-Cys(Arg)9: approximately the same transport efficiency
HeLa cells
  Mean Fluorescence Intensity of treated cells according to FACS, HeLa: 2,100

## neo-BODIPY [Neo-BODIPY (3)]
10T1/2 cells
  Mean Fluorescence Intensity of treated cells according to FACS, 10T1/2: 60
  cellular uptake: poor cellular uptakes
HeLa cells
  Mean Fluorescence Intensity of treated cells according to FACS, HeLa: ~1,400^(e)

## tobra-BODIPY [Tobra-BODIPY (1)]
10T1/2 cells
  Mean Fluorescence Intensity of treated cells according to FACS, 10T1/2: 60
  cellular uptake: poor cellular uptakes
HeLa cells
  Mean Fluorescence Intensity of treated cells according to FACS, HeLa: 1,000

B1: Aldurazyme: recombinant therapeutic α-1-iduronidase (protein, UniProt P35475 28-653, looked up)
Alpha-L-iduronidase: APHLVHVDAARALWPLRRFWRSTGFCPPLPHSQADQYVLSWDQQLNLAYVGAVPHRGIKQVRTHWLLELVTTRGSTGRGLSYNFTHLDGYLDLLRENQLLPGFELMGSASGHFTDFEDKQQVFEWKDLVSSLARRYIGRYGLAHVSKWNFETWNEPDHHDFDNVSMTMQGFLNYYDACSEGLRAASPALRLGGPGDSFHTPPRSPLSWGLLRHCHDGTNFFTGEAGVRLDYISLHRKGARSSISILEQEKVVAQQIRQLFPKFADTPIYNDEADPLVGWSLPQPWRADVTYAAMVVKVIAQHQNLLLANTTSAFPYALLSNDNAFLSYHPHPFAQRTLTARFQVNNTRPPHVQLLRKPVLTAMGLLALLDEEQLWAEVSQAGTVLDSNHTVGVLASAHRPQGPADAWRAAVLIYASDDTRAHPNRSVAVTLRLRGVPPGPGLVYVTRYLDNGLCSPDGEWRRLGRPVFPTAEQFRRMRAAEDPVAAAPRPLPAGGRLTLRPALRLPSLLLVHVCARPEKPPGQVTRLRALPLTQGQLVLVWSDEHVGSKCLWTYEIQFSQDGKAYTPVSRKPSTFNLFVFSPDTGAVSGSYRVRALDYWARPGPFSDPVPYLEVPVPRGPPSPGNP
modifications: laronidase
notes: recombinant therapeutic α-1-iduronidase
MPS I fibroblasts
  ED50, [35S]glycosaminoglycan turnover: 1 U

B2: AP-α-1-iduronidase: α-1-iduronidase treated with alkaline phosphatase (protein, UniProt P35475 28-653, looked up)
Alpha-L-iduronidase: B1 Alpha-L-iduronidase
modifications: dephosphorylated by alkaline phosphatase
notes: α-1-iduronidase treated with alkaline phosphatase
MPS I fibroblasts
  ED50, [35S]glycosaminoglycan turnover: 30 U

B3: GNeo-AP-α-1-iduronidase: GNeo conjugated to AP-α-1-iduronidase (conjugate, UniProt P35475 28-653, looked up)
Alpha-L-iduronidase: B1 Alpha-L-iduronidase
modifications: GNeo conjugate, dephosphorylated
notes: GNeo conjugated to AP-α-1-iduronidase
MPS I fibroblasts
  ED50, [35S]glycosaminoglycan turnover: 0.2 units

B4: hGUS: human recombinant GUS (protein, UniProt P08236 23-651, looked up)
Beta-glucuronidase: LQGGMLYPQESPSRECKELDGLWSFRADFSDNRRRGFEEQWYRRPLWESGPTVDMPVPSSFNDISQDWRLRHFVGWVWYEREVILPERWTQDLRTRVVLRIGSAHSYAIVWVNGVDTLEHEGGYLPFEADISNLVQVGPLPSRLRITIAINNTLTPTTLPPGTIQYLTDTSKYPKGYFVQNTYFDFFNYAGLQRSVLLYTTPTTYIDDITVTTSVEQDSGLVNYQISVKGSNLFKLEVRLLDAENKVVANGTGTQGQLKVPGVSLWWPYLMHERPAYLYSLEVQLTAQTSLGPVSDFYTLPVGIRTVAVTKSQFLINGKPFYFHGVNKHEDADIRGKGFDWPLLVKDFNLLRWLGANAFRTSHYPYAEEVMQMCDRYGIVVIDECPGVGLALPQFFNNVSLHHHMQVMEEVVRRDKNHPAVVMWSVANEPASHLESAGYYLKMVIAHTKSLDPSRPVTFVSNSNYAADKGAPYVDVICLNSYYSWYHDYGHLELIQLQLATQFENWYKKYQKPIIQSEYGAETIAGFHQDPPLMFTEEYQKSLLEQYHLGLDQKRRKYVVGELIWNFADFMTEQSPTRVLGNKKGIFTRQRQPKSAAFLLRERYWKIANETRYPHSVAKSQCLENSLFT
MPS VII fibroblasts [1]
  effect of heparin lyase treatment of cells on uptake: insensitive
MPS VII fibroblasts [1]; 5 mmol/l M6P
  effect of M6P on uptake: greatly inhibited uptake
MPS VII fibroblasts [1]; 2-hour incubation
  uptake: robust
MPS VII fibroblasts [2]
  ED50, [35S]glycosaminoglycan turnover: ~3 mU

B5: GNeo-AP-hGUS: GNeo conjugate of alkaline phosphatase-treated hGUS (conjugate, UniProt P08236 23-651, looked up)
Beta-glucuronidase: B4 Beta-glucuronidase
modifications: GNeo conjugate, dephosphorylated
MPS VII fibroblasts [2]
  ED50, [35S]glycosaminoglycan turnover: ~10 mU

B6: AP-hGUS: hGUS treated with alkaline phosphatase (protein, UniProt P08236 23-651, looked up)
Beta-glucuronidase: B4 Beta-glucuronidase
modifications: dephosphorylated by alkaline phosphatase
MPS VII fibroblasts [2]
  ED50, [35S]glycosaminoglycan turnover: ~300 mU

Source: patent US9889182B2, “Assisted enzyme replacement therapy” (The Regents of the University of California, priority 2009, dated 2018)
